Measurements: US11760775B2, “Steroids and protein-conjugates thereof” (Regeneron Pharmaceuticals, Inc., priority 2016, dated 2023)

Molecular target: human liver cathepsin B (Homo sapiens (Human), UniProt P07858)
Assay: Linker-payload cleavage in Cathepsin B assay
Type: biochemical
Conditions: for Conversion rate (%): Mean
Procedure: The linker-payloads were tested in a Cathepsin B assay. After 4 hr incubation in Cathepsin B (CapB) with and without CapB inhibitor ([…]), both linker-payloads and free payload were evaluated using LC-MS/MS.
The CapB assay procedure follows: Linker-payload stock solution (10 mM in DMSO) was spiked into incubation buffer (100 mM NaOAc, 10 mM dithiothreitol, pH5) to obtain a 50 μM substrate solution. 4 μL of 0.47 μg/μL human liver cathepsin B (Athens Research & Technology, Athens, GA) in 50 mM NaOAc, 1 mM EDTA, pH 5 was added into 196 μL of 50 μM substrate solution. The reaction mixture was incubated at 37° C. for 4 hr. Then 5 μL of acetic acid and 150 μL of acetonitrile (containing osalmid as internal standard) were added to 50/Th of reaction mixture aliquots. After vortexing, the quenched samples were frozen in a −70° C. deep freezer, followed by thawing and centrifugation at 14,000 rpm.
The CapB assay experiment included the following procedure. • 1. Preheat assay buffer: 0.1 M NaOAc/0.01 M DTT (pH 5.0) • 2. Spiking solutions for test compounds: 25 μM Spiking solutions for test compounds: Add […], of 5 mM stock solution into 398 μL of 0.1 M NaOAc/0.01 M DTT buffer (pH 5.0). • 3. Prepare 0.47m/μL Cathepsin B in 50 mM NaOAc/1 mM EDTA (pH 5.0). Put on ice. • 4. Without CA074 samples: Add […], of 0.47m/μL Cathepsin B into 196 μL of 25 μM Spiking solutions (from step 2), incubate the tubes at 37° C. • 5. With CA074 samples: Add 4 μL of 0.47m/μL Cathepsin B with 4 μL of 10 mM Inhibitor (CA074) into 196 μL of 25 μM Spiking solutions (from step 2), incubate the tubes at 37° C. • 6. After 4 hours, Aliquots of 5 μL (with CA074 and without CA074) were taken for enzyme activity test (step 15-17). Meanwhile, Aliquots of 50 μL were taken at the time point (4 h), adding 5 μL of acetic acid, and then add 150 μL of ACN (IS) to stop the reaction. • 7. After quenching, shake the plate and centrifuge them at 14000 rpm. • 8. Transfer 50 μL of the supernatant from each well into a 96-well sample plate containing 50 μL of ultra pure water (Millipore, ZMQS50F01) for LC/MS analysis.
The CapB assay experiment included the reference compounds and the following procedure. • 9. Preheat assay buffer: 100 mM Na/K phosphate, pH6.0, with 1.33 mM EDTA and 2 mM DTT. • 10. Prepare 0.024m/μL Cathepsin B: Add […] of 0.47 μg/μL Cathepsin B stock into 19 μL of assay buffer (from step 11). • 11. Add 2 μL of 0.024m/μL Cathepsin B (from step 12) to a opaque 96-well plate. • 12. Add 96 μL of assay buffer to each sample. • 13. Add 2 μL of the 10 mM substrate Z—RR-MNA(200 μM final concentration). • For negative control (with inhibitor), add 2 μL of 10 mM Inhibitor (CA074). • 14. Immediately read the samples in a kinetic mode at excitation of 340 nm/emission of 425 nm (Read the plate every 30 Second for 3 min).
Stability of Cathepsin B in incubation samples: • 15. Take Take 5 μL of incubation samples into 93 μL of assay buffer (from step 11), and then add 2 μL of 10 mM substrate (Z—RR-MNA). • 16. Incubate the samples at 37° C. for 2 min. • 17. Read the samples at excitation of 340 nm/emission of 425 nm.

[1] = with CA074 (Cathepsin B inhibitor), 4 hr incubation
[2] = without CA074, 4 hr incubation with Cathepsin B

CCCC1O[C@@H]2C[C@H]3[C@@H]4C[C@H](F)C5=CC(=O)C=C[C@]5(C)[C@@]4(F)[C@@H](O)C[C@]3(C)[C@]2(C(=O)COc2ccc(NC(=O)[C@H](C)NC(=O)[C@@H](NC(=O)[C@@H](N)CCCCNC(=O)COC3C#CCCCCC3)C(C)C)cc2)O1 (stereo partly shown) [LP102]
Conversion rate (%) [1]: <1.00%
Conversion rate (%) [2]: 22.72%

CCCC1O[C@@H]2C[C@H]3[C@@H]4C[C@H](F)C5=CC(=O)C=C[C@]5(C)[C@@]4(F)[C@@H](O)C[C@]3(C)[C@]2(C(=O)COc2ccc(NC(=O)OCc3ccc(NC(=O)[C@H](CCCNC(N)=O)NC(=O)[C@@H](NC(=O)[C@@H](N)CCCCNC(=O)COC4C#CCCCCC4)C(C)C)cc3)cc2)O1 (stereo partly shown) [LP103]
Conversion rate (%) [1]: <1.00%
Conversion rate (%) [2]: 29.0%

CCCC1O[C@@H]2C[C@H]3[C@@H]4C[C@H](F)C5=CC(=O)C=C[C@]5(C)[C@@]4(F)[C@@H](O)C[C@]3(C)[C@]2(C(=O)CNC(=O)OCc2ccc(NC(=O)[C@H](CCCNC(N)=O)NC(=O)[C@@H](NC(=O)[C@@H](CCCCNC(=O)COC3CCCCCc4c3nnn4CC3OC4OC5C(CO)OC(OC6C(CO)OC(OC7C(CO)OC(OC8C(CO)OC(OC9C(CO)OC(OC3C(O)C4O)C(O)C9O)C(O)C8O)C(O)C7O)C(O)C6O)C(O)C5O)NC(=O)CCOCCOCCOCCOCCNC(=O)CCC(=O)N3Cc4ccccc4C#Cc4ccccc43)C(C)C)cc2)O1 (stereo partly shown) [LP104]
Cleavage by Cathepsin B and payload release (4 hr incubation, LC-MS/MS): could be cleaved by CapB and released more payload (4b)
Conversion rate (%) [1]: <1.00%
Conversion rate (%) [2]: 29.0%

CCCC1O[C@@H]2C[C@H]3[C@@H]4C[C@H](F)C5=CC(=O)C=C[C@]5(C)[C@@]4(F)[C@@H](O)C[C@]3(C)[C@]2(C(=O)CNC(=O)OCc2ccc(NC(=O)[C@H](CCCNC(N)=O)NC(=O)[C@@H](NC(=O)CCOCCOCCOCCOCCNC(=O)CCC(=O)N3Cc4ccccc4C#Cc4ccccc43)C(C)C)cc2)O1 (stereo partly shown) [LP112]
Conversion rate (%) [1]: <1.00%
Conversion rate (%) [2]: 20.8%

CCCC1O[C@@H]2C[C@H]3[C@@H]4C[C@H](F)C5=CC(=O)C=C[C@]5(C)[C@@]4(F)[C@@H](O)C[C@]3(C)[C@]2(C(=O)COc2ccc(NC(=O)OCc3ccc(NC(=O)[C@H](CCCNC(N)=O)NC(=O)[C@@H](NC(=O)CCOCCOCCOCCOCCNC(=O)CCC(=O)N4Cc5ccccc5C#Cc5ccccc54)C(C)C)cc3)cc2)O1 (stereo partly shown) [LP116]
Conversion rate (%) [1]: <1.00%
